According to article PMC7714071, “Interaction of amyloid beta with humanin and acetylcholinesterase is modulated by ATP” (FEBS Open Bio, 2020):

Columns and labels:
[1] = tested on: Aβ from A549 cell-conditioned media; experiment: ELISA, HN (endogenous and exogenously added) and AChE bound to Aβ from A549 media on 82E1 antibody; format: binding, human; conditions: Fig. 6A
Method: (§1) Human NSCLC cell lines, A549 (ATCC CCL‐185) and H1299 (ATCC CRL‐5803), were purchased from the American Type Culture Collection (ATCC, Manassas, VA, USA). Cells were seeded as we reported earlier in 5 mL HyClone Dulbecco's modified Eagle's medium/nutrient mixture F‐12 (DMEM/F12) (GE Healthcare Life Sciences, Pittsburgh, PA, USA), supplemented with 10% Fetalgro bovine growth serum (FBS; RMBIO, Missoula, MT, USA), 50 U·mL^−1 penicillin, and […] streptomycin (Invitrogen, Life Technologies, Carlsbad, CA, USA) in 25‐cm^2 tissue culture flasks, and allowed to grow overnight in an incubator at 37 °C, 95% humidity, and 5% CO2. The cells were counted after trypan blue staining, with a hemocytometer.
ELISAs were carried out as we previously reported. Nunc MaxiSorp 96‐well flat bottom plate (Thermo Fisher) wells were coated with samples as indicated. The plates were incubated overnight at 4 °C on a shaker to allow binding of the samples to the plate wells. After the incubation, the wells were washed 4× with TBST, filled with 400 µL blocking buffer (110 mM KCl, 5 mM NaHCO3, 5 mM MgCl2, 1 mM EGTA, 0.1 mM CaCl2, 20 mM HEPES, 1% BSA, pH 7.4), and incubated with shaking overnight at 4 °C. The wells were then washed 4× with TBST, and 100 µL of sample at the desired concentration was added to each well and incubated with shaking overnight at 4 °C. TBST was then used to wash the wells 4× before proceeding in one of two ways: (a) biotinylated samples were analyzed by adding 100 µL streptavidin–HRP conjugate in TBST (1 : 2500 dilution) to the samples followed by incubation for 3 h at RT on a shaker, or (b) samples without biotin were analyzed by adding 100 µL TBST containing the primary antibody as per the manufacturer's recommendation, incubating for 3 h at RT on a shaker, followed by washing the wells 4× with TBST. The secondary antibody in 100 µL TBST was then added to the samples following the manufacturer's recommendation and incubated for 1 h at RT on a shaker. […] The reaction was stopped with 100 µL 2 M H2SO4 after incubating at RT for 0.5–15 min, resulting in a yellow color change, measured by absorbance at 450 nm. To monitor nonspecific binding, negative control wells on the plates included, for example, bound Aβ peptide then adding all components, streptavidin‐HRP and TMB, but without addition of biotin‐HN. Some wells were coated with 2.5, 10, 50, 100, 500, and 5000 nM biotin‐HN or Aβ to allow conversion of the OD measurements to concentrations of bound material. Before analysis, the OD from the data was corrected for nonspecific binding by subtracting the mean background absorbance for the negative controls. Typically, in control wells incubated on each plate, the background binding is about 10–15% of the maximum binding seen with addition of biotin peptides or antibodies. Statistical analysis was determined by the […] PRISM 8.4.3 software (San Diego, CA, USA). Data were expressed as the mean ± SD. […]
Anti‐Aβ‐specific antibodies (82E1) were added (1 : 1000 dilution) to ELISA plate wells (Fig. 6). The wells were blocked, and then, 300 µL of the conditioned media (0.5 µg·µL^−1) of A549 or H1299 cells, 72 h postserum starvation, was added in the absence or presence of increasing HN concentrations, and the HN and AChE bound were detected using the corresponding specific primary antibodies. Fold change relative to controls that included all components but without the primary antibodies was calculated and fit with a nonlinear regression curve using the […] […]

Aβ42 = conditions: HN and AChE compared; cited from earlier work
Excerpt: Humanin has been previously reported to bind amino acid residues 17–28 of Aβ (Fig. 1). AChE is also known to bind Aβ (1–16) and the Aβ (12–28) region (Fig. 1). Since the binding sites of AChE and HN on Aβ are overlapping, we previously investigated whether HN and AChE can simultaneously bind Aβ [79].

Aβ cytotoxicity = conditions: cited from earlier work
Excerpt: Almost all types of cells produce amyloid beta (Aβ), a peptide well recognized for its role in the development and progression of different stages of Alzheimer's disease (AD). The Aβ peptide is ~ 4 kDa and derived from the sequential processing of the higher molecular weight amyloid precursor protein by two membrane‐bound endoproteases, β‐ and γ‐secretase. Different C‐terminal Aβ heterogeneity results from processing by γ‐secretase, where Aβ40 represents the most abundant isoform (~ 90%) as compared to Aβ42 (~ 10%). Self‐assembled Aβ40/42 peptides into amyloid fib ... || Soluble oligomers of proteins implicated in different diseases are primarily thought to be the main toxic form as opposed to the larger fibrillar assemblies. Aβ regions containing Tyr and Ser (H6DSGY10 and G25SNKG29) (Fig. 1) along with post‐translational modifications of these regions, have been implicated in misfolding, oligomerization, or fibril formation of Aβ [5, 10, 11, 16, 41]. […] Aβ proteins a ... || Acetylcholinesterase (AChE) is an enzyme known for its role in terminating acetylcholine‐mediated neurotransmission at the synaptic cleft. The majority of the cortical AChE in the Alzheimer's brain is mainly associated with the amyloid core of senile plaques. […]

[2] = tested on: AChE-Aβ complex (A549 cell-conditioned media); experiment: ELISA, AChE found in a complex with Aβ in A549 cell-conditioned media; format: binding, human
Method: as §1
ELISAs were carried out as we previously reported. Nunc MaxiSorp 96‐well flat bottom plate (Thermo Fisher) wells were coated with samples as indicated. The plates were incubated overnight at 4 °C on a shaker to allow binding of the samples to the plate wells. After the incubation, the wells were washed 4× with TBST, filled with 400 µL blocking buffer (110 mM KCl, 5 mM NaHCO3, 5 mM MgCl2, 1 mM EGTA, 0.1 mM CaCl2, 20 mM HEPES, 1% BSA, pH 7.4), and incubated with shaking overnight at 4 °C. […] TBST was then used to wash the wells 4× before proceeding in one of two ways: (a) biotinylated samples were analyzed by adding 100 µL streptavidin–HRP conjugate in TBST (1 : 2500 dilution) to the samples followed by incubation for 3 h at RT on a shaker, or (b) samples without biotin were analyzed by adding 100 µL TBST containing the primary antibody as per the manufacturer's recommendation, incubating for 3 h at RT on a shaker, followed by washing the wells 4× with TBST. […] The reaction was stopped with 100 µL 2 M H2SO4 after incubating at RT for 0.5–15 min, resulting in a yellow color change, measured by absorbance at 450 nm. […] Before analysis, the OD from the data was corrected for nonspecific binding by subtracting the mean background absorbance for the negative controls. […] Statistical analysis was determined by the […] […] Data were expressed as the mean ± SD. […]

Compound | HN concentration at which signal begins to level off ([1]; exogenous HN, A549 media) | binding of exogenous HN to Aβ ([1]; increasing exogenous HN, A549 media, 82E1) | affinity for Aβ42 (Aβ42) | effect of ATP on binding of exogenously added HN to Aβ ([1]; 0.1 mM, 1 mM ATP (more pronounced at 1 mM), A549 media) | effect of ATP on binding of Aβ to AChE ([1]; A549 cell-conditioned media, 82E1) | effect of ATP on binding of endogenous HN to Aβ ([1]; increasing ATP (0.1 mM, 1 mM; more pronounced at 1 mM), A549 media, 82E1) | effect on Aβ-mediated cytotoxicity (Aβ cytotoxicity) | decrease in levels of AChE found in a complex with Aβ ([2]; 100 μM ATP, 6E10 or 82E1 on wells, three experiments in triplicate, Fig. 5A) | levels of AChE found in a complex with Aβ ([2]; 1 mM ATP, 6E10 or 82E1 on wells, Fig. 5A) | Aβ detected on anti-AChE wells upon ATP addition ([2]; anti-AChE on wells, Aβ detected by 6E10 or 82E1, Fig. 5B)
Humanin [HN] | around 50 nM | increased binding to Aβ | comparable affinities |  |  |  |  |  |  | 
Nc1ncnc2c1ncn2[C@@H]1O[C@H](COP(=O)(O)OP(=O)(O)OP(=O)(O)O)[C@@H](O)[C@H]1O [ATP, Adenosine triphosphate] |  |  |  | decreased binding of exogenously added HN | decreased upon addition of ATP | increased binding of endogenous HN | protective | ~ 2.3 fold | decreased to almost blank levels | comparable decrease in the levels of Aβ
